Experimental findings from patent US20150238487A1, “NOVEL ERGOLINE DERIVATIVES AND USES THEREOF” (MAP Pharmaceuticals, Inc., priority 2012, published 2015) are described below.

In assay [1] the target is T1, Serotonin 5-HT1B (Homo sapiens, UniProt P28222).
T1 construct: expressed in transfected cells; host or cells: CHO-K1 (membrane extracts)
Nature of the assay: GTPγ[35S] assay, Serotonin 5-HT1B. In kind it is biochemical. The note with it: agonism, CHO-K1 membranes. The protocol:
(§1) Receptor […] activity assays were performed using 8′OH-2-CF3-dihydroergotamine (8′OH-2-CF3-DHE). Table 1 summarizes the cell lines (CHO-K1/HEK293 transfected with relevant human receptor) and the assays performed to detect any agonist or antagonist activity.
(§2) GTPγS studies were conducted to monitor agonist activity for 8′OH-2CF3-dihydroergotamine (8′OH-2CF3-DHE) against the receptors indicated in Table 1 above. Reagents used were the following: Assay buffer (20 mM HEPES, pH 7.4; 100 mM NaCl; 10 μg/mL saponin; 30 mM MgCl2); Membranes (recombinant human receptor membrane extracts were thawed on ice and diluted in assay buffer to give 1000 μg/mL ([…]) and kept on ice); GDP (diluted in assay buffer to give 30 μM solution (3 μM final concentration); beads (PVT-WGA (Amersham, RPNQ001), diluted in assay buffer at 25 mg/mL (0.25 mg/10 μL)); GTPγ^35S (Perkin Elmer, NEG030X), diluted in assay buffer to give 0.1 nM (final concentration); and ligand (agonist/antagonist diluted in assay buffer).
(§3) Membranes were mixed with GDP (1:1) and incubated for at least 15 minutes on ice. In parallel GTPγ^35S was mixed with the beads (1:1) just before starting the reaction. […] The plates were then centrifuged for 10 minutes at 2000 rpm and incubated at room temperature for 1 hour and counted for 1 min/well with a Perkin Elmer TopCount reader.

The subject of assay [2] is Calcitonin (AM1/AM2). The assay is described as follows: cAMP HTRF assay, Calcitonin AM1/AM2. It is filed as cell-based, human. The note with it: CHO-K1, cAMP. The protocol:
as §1
(§4) cAMP HTRF (Gs) studies were conducted to monitor activity for 8′OH-2CF3-dihydroergotamine (8′OH-2CF3-DHE) against the receptors indicated in Table 1 above. Cells expressing the human recombinant receptor of interest were grown in media without antibiotic and detached by gentle flushing with PBS-EDTA (5 mM EDTA), recovered by centrifugation and resuspended in assay buffer (KRH: 5 mM KCl, 1.25 mM MgSO4, 124 mM NaCl, 25 mM HEPES, 13.3 mM glucose, 1.25 mM KH2PO4, 1.45 mM CaCl2, 0.5 g/L BSA). Dose response curves were performed in parallel with the reference compounds. For agonist tests (96-well plates), 12 μL of cells was mixed with 12 μL of the test compound at increasing concentrations and then incubated for 30 minutes at room temperature. Lysis buffer was added and after a 1 hour incubation, cAMP concentrations was determined according to the manufacturer specification with the HTRF kit. […] Lysis buffer was added and after a 1 hour incubation, cAMP concentrations were determined according to the manufacturer specification, with the HTRF kit.
Background: In TR-FRET formats the signal depends on donor and acceptor labels being close together.

Assay [3] deals with T2, Adenosine A2a (Homo sapiens, UniProt P29274).
T2 construct: expressed in transfected cells; host or cells: HEK293
The assay is described as follows: cAMP HTRF assay, Adenosine A2a. It is filed as cell-based. To be noted: agonism; HEK293, cAMP. The protocol:
as §1, §4

Assay [4] addresses T3, Serotonin 5-HT1A (Homo sapiens, UniProt P08908).
T3 construct: expressed in transfected cells; host or cells: CHO-K1 (membrane extracts)
The assay is described as follows: GTPγ[35S] assay, Serotonin 5-HT1A. In kind it is biochemical. The note with it: agonism, CHO-K1 membranes. The protocol:
as §1, §2, §3

Assay [5] has as its target T4, Adrenergic α1D (Homo sapiens, UniProt P25100).
T4 construct: expressed in transfected cells; host or cells: CHO-K1 mAeq
Nature of the assay: Aequorin assay, Adrenergic α1D. To be noted: antagonism, CHO-K1 mAeq, read-out: Activity (Antagonism: IC50), Adrenergic a1D. In kind it is cell-based. Here is the method: as §1
(§5) Aequorin assays were conducted to monitor activity for 8′OH-2CF3-dihydroergotamine (8′OH-2CF3-DHE) against the receptors indicated in Table 1 above (except for mGlu3 and mGlu5). CHO-K1 cells coexpressing mitochondrial apoaequorin and the recombinant human receptor of interest were grown to mid-log phase in culture media without antibiotics and then detached with PBS-EDTA, centrifuged and resuspended in assay buffer (DMEM/HAM's F12 with HEPES, without phenol red+0.1% BSA, protease free) at a concentration of 1×10^6 cell/mL. […]
(§6) 50 μL of the cell suspension was mixed with 50 μL of test or reference agonist in a 96-well plate. The resulting emission of light was recorded using Hamamatsu Functional Drug Screening System 6000 (FDSS 6000) luminometer. […]
(§7) To standardize the emission of recorded light (and determine of the “100% signal”) across plates and across different experiments, some wells contained 100 μM digitonin or a saturating concentration of ATP (20 μM).

Assay [6] concerns the target T5, Adrenergic α2A (Homo sapiens, UniProt P08913).
T5 construct: expressed in transfected cells; host or cells: CHO-K1 (membrane extracts)
The assay is described as follows: GTPγ[35S] assay, Adrenergic α2A. In kind it is biochemical. To be noted: antagonism, CHO-K1 membranes, read-out: Activity (Antagonism: IC50), Adrenergic a2A. Here is the method: as §1, §2, §3

The target in assay [7] is T6, Serotonin 5-HT2B (Homo sapiens, UniProt P41595).
T6 construct: expressed in transfected cells; host or cells: CHO-K1 mAeq Gα16
The assay is described as follows: Aequorin assay, Serotonin 5-HT2B. In kind it is cell-based. To be noted: antagonism; CHO-K1 mAeq Gα16, Aequorin. The protocol: as §1, §5, §6, §7

Assay [8] has as its system Purinergic (P2X1/P2X2/P2X3/P2X4/P2X7). Nature of the assay: Purinergic receptor QPatch patch clamp study. It is filed as cell-based, human. The note with it: HEK293, QPatch HT, agonist and antagonist modes at 10 and 30 μM. Here is the method:
Purinergic receptor studies were conducted to monitor activity for 8′OH-2CF3-dihydroergotamine (8′OH-2CF3-DHE) against the P2X1, P2X2, P2X3, P2X4 and P2X7 receptors. Human recombinant purinergic receptor expressing HEK293 cells were used and receptor activity was evaluated at room temperature using QPatch HT® (Sophion Bioscience A/S, Denmark) automatic parallel patch clamp system. 8′OH-2CF3-DHE was evaluated in both agonist and antagonist modes at 10 and 30 μM. Each concentration was tested in triplicates.
On the technique in general: The patch-clamp technique gives a direct electrical read-out from membranes.

The structures appear in SMILES notation.

T2 sequence (P29274 whole entry): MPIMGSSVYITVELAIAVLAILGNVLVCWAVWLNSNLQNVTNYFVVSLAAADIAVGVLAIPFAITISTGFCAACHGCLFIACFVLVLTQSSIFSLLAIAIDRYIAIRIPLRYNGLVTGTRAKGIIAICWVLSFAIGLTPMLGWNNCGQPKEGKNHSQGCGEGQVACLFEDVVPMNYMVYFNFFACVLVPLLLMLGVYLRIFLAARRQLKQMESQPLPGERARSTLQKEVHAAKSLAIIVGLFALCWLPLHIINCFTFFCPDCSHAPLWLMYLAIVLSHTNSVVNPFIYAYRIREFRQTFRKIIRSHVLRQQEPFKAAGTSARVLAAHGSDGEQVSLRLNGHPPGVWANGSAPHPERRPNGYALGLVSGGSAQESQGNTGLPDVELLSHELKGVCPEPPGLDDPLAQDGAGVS
T4 sequence (P25100 whole entry): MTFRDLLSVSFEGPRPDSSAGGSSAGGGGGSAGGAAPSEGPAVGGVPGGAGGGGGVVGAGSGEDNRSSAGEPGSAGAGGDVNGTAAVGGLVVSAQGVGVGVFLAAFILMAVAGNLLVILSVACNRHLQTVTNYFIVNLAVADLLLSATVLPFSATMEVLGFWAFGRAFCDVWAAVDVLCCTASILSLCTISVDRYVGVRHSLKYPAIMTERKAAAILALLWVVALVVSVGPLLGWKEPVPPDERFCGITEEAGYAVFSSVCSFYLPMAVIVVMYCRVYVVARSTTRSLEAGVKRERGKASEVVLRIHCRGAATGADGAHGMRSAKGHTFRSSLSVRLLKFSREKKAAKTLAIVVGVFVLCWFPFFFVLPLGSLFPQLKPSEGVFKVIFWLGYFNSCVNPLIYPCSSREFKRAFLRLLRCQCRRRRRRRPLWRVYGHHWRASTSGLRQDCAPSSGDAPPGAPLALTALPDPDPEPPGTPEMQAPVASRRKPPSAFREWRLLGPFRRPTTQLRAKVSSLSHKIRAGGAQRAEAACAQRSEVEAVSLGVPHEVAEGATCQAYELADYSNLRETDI
T6 sequence (P41595 whole entry): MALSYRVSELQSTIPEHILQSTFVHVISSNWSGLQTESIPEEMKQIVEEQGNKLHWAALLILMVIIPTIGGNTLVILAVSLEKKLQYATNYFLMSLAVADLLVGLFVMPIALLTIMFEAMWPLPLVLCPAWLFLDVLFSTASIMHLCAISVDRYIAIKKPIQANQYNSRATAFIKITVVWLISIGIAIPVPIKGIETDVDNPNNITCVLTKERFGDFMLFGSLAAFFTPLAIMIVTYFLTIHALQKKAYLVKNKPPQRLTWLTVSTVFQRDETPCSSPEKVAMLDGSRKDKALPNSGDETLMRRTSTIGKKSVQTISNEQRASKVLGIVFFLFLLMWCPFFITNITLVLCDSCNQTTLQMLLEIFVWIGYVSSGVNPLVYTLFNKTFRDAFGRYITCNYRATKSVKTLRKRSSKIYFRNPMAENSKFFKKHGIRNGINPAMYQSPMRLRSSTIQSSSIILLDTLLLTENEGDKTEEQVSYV
T3 sequence (P08908 whole entry): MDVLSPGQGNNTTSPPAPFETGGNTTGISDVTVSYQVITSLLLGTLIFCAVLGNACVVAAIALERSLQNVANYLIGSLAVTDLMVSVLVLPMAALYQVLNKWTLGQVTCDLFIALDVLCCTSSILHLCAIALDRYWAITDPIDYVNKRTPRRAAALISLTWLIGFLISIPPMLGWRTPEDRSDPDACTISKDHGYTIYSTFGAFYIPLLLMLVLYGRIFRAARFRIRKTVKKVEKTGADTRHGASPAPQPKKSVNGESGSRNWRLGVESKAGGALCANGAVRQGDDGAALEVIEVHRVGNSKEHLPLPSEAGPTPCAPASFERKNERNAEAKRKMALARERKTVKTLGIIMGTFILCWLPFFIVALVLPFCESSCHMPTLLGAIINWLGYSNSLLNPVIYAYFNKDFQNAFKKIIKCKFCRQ
T5 sequence (P08913 whole entry): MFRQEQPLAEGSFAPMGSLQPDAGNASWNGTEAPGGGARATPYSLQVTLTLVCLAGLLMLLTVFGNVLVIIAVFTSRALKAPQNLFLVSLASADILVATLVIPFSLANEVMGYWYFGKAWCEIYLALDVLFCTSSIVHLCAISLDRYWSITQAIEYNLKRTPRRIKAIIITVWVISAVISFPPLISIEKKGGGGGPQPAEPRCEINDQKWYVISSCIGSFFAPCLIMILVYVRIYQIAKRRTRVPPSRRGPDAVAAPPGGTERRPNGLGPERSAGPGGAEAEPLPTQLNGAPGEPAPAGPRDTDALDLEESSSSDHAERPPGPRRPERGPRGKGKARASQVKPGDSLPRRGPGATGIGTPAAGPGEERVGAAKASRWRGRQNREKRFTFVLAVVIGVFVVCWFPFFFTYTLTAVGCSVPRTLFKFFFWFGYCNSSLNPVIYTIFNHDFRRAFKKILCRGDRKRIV
T1 sequence (P28222 whole entry): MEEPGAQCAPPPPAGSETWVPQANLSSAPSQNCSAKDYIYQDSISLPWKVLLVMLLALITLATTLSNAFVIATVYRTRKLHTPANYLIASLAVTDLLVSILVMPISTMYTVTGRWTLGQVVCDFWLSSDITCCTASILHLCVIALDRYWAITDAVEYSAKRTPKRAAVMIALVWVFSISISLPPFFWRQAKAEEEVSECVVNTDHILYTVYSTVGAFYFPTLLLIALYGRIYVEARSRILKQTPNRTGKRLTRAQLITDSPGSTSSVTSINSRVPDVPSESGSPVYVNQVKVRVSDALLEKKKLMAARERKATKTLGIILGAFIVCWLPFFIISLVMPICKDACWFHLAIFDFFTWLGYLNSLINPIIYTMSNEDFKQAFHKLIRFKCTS

Consider `CN1C[C@H](C(=O)N[C@]2(C)O[C@@]3(O)[C@@H]4CC[C@@H](O)N4C(=O)[C@H](Cc4ccccc4)N3C2=O)C[C@@H]2c3cccc4[nH]c(C(F)(F)F)c(c34)C[C@H]21` [8′OH-2-CF3-DHE, 8′-Hydroxy-2-CF3-dihydroergotamine], for which the EC50 (as a rule, the concentration giving half of the maximal effect) was 405 nM in assay [1], 5.27 nM in assay [3] and 425 nM in assay [4]. Moreover, in assay [2], the “Activity (Agonism: EC50; Antagonism: IC50), Calcitonin (AM1/AM2)” value is “Inactive”. Besides, in assay [3], the Emax (in general, the maximal effect, on the per cent scale that the assay sets) was found to be 25%. In addition, the IC50 (usually the concentration needed to halve the response being measured) in assay [5] amounted to 9.58 nM; in assay [6] it was 149 nM; in assay [7], 88.2 nM. In addition, the “Activity (Agonism: EC50; Antagonism: IC50), Purinergic (P2X1/P2X2/P2X3/P2X4/P2X7)” value in assay [8] is listed as “Inactive”.
